Results reported in patent publication US20090305995A1, “AGONISTS AND ANTAGONISTS OF THE SOMATOSTATIN RECEPTOR” (Novartis AG, priority 2004, published 2009).
In brackets after ≈: the same amount, converted by molar mass. Like-named read-outs stand apart in the source and are kept apart here.

Tests used:
[1] = high throughput solubility (HT-Solubility); format: physicochemical; conditions: for water solubility (in words): see FIG. 10
[2] = logP octanol by pH-metric titration (GLpKa instrument); format: physicochemical; conditions: read-out: log P/D logP octanol
Experimental: In order to have a real measure of log P values for highly polar compounds, respective values for compounds 1 to 3 (C-terminal L-β-homothreonine amides) and compounds 7 to 9 (C-terminal 4-amino-5-methyl-dihydro-fuan-2-ones) are measured by employing pH-metric titration technology using a GLpKa instrument (Box et al. 2003). The high polarity of these two mixed α/β^3-tetrapeptides can be controlled by N-terminal introduction of lipophilization tags. The conjugation with fatty acid analogs leads to compounds with druglike polarity (5, 6, 10, 11, 12, 13, 14, 15, 16, 17, 18 and 26).

[3] = HT-logP o/w, high throughput assay based on artificial liquid membrane permeability; format: physicochemical
How it was run: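 Octanol/water partition coefficients measured in a high-throughput format based on permeability across an artificial liquid membrane.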

[4] = high throughput permeability (HT-Permeability, log Pe); format: physicochemical; conditions: PAMPA, Pe in cm/s
human SRIF receptors = assay: radioligand-binding displacement assay on the human SRIF receptor family (selectivity)
Experimental: (§1) The generated peptides are tested for their affinity to bind to human SRIF receptors expressed in Chinese hamster lung fibroblast (CCL39) cells. This is achieved in radioligand-binding assays, a displacement experiment in which the concentration of a substance is measured which is necessary for the replacement of 50% of a specifically bound radioligand ([^125I]LTT-SRIF28). Specific binding is measured as the total binding of receptor-specific radioligand minus the amount of radioligand bound in presence of unmarked SRIF-14 (100 nM, nonspecific binding).

hsst4 receptor = target: T1, hsst4 receptor (Homo sapiens, UniProt P31391); assay: radioligand-binding displacement assay ([125I]LTT-SRIF28), receptor expressed in CCL39 cells; conditions: hsst4; [125I]LTT-SRIF28 displacement
T1 construct: expressed in transfected cells; host or cells: Chinese hamster lung fibroblast (CCL39) cells
Experimental: as §1

[5] = octanol/water; read-out: HT LogP ohw
[6] = pH 8, pH 8.0, read-out: HT-Permeability logPe pH 8.0 (converted)
[7] = pH 1, pH 1.0, read-out: HT-Solubility pH 1.0
[8] = pH 6.8, pH 6.8, read-out: HT-Solubility pH 6.8
[9] = pH 4, pH 4.0, read-out: HT-Permeability logPe pH 4.0 (converted)
[10] = pH 6.8, pH 6.8, read-out: HT-Permeability logPe pH 6.8 (converted)
[11] = octanol/water, read-out: HT LogP ohw

T1 sequence (P31391 whole entry): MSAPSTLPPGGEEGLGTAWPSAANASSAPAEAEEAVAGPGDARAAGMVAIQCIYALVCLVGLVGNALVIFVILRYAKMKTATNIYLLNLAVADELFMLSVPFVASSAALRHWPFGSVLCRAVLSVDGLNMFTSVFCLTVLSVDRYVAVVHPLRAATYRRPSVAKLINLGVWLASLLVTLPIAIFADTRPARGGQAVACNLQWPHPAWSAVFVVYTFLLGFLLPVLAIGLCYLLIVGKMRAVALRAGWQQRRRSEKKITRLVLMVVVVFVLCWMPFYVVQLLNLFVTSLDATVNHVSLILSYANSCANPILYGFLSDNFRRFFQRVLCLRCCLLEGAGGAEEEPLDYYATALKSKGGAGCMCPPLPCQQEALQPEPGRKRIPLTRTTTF

| HT-Solubility pH 1.0 [1] | HT-Solubility pH 6.8 [1] | logP [2] | logP [3, 5] | Papp [4, 6] | water solubility (in words) [1] | selectivity amongst other hsst receptors (factor) (human SRIF receptors; hsst4 versus other hsst receptors) | Kd (hsst4 receptor) | solubility [1, 7] | solubility [1, 8] | Papp [4, 9] | Papp [4, 10] | affinity to the receptors of the SRIF family (in words) (human SRIF receptors) | logP [3, 11] | HT LogP ohw ([3]; octanol/water) | SMILES |
| --- | --- | --- | --- | --- | --- | --- | --- | --- | --- | --- | --- | --- | --- | --- | --- |
| 0.0133 g 1-1 | 0.0133 g 1-1 | 0.4 | – | – | – | – | – | – | – | – | – | – | – | – | CC(=O)N[C@H](CC(=O)N[C@H](Cc1c[nH]c2ccccc12)C(=O)N[C@@H](CCCCN)CC(=O)N[C@H](CC(N)=O)[C@@H](C)O)Cc1ccccc1 [Compound 3] |
| – | – | 0.4 | 3.4 | 2 ×10⁻⁶ cm/s | – | – | – | – | – | – | – | – | – | – | CC(=O)N[C@H](CC(=O)N[C@H](Cc1c[nH]c2ccccc12)C(=O)N[C@@H](CCCCN)CC(=O)N[C@@H]1CC(=O)O[C@@H]1C)Cc1ccccc1 [Compound 8] |
| – | – | 1 | – | 3.16 ×10⁻⁶ cm/s | – | – | 1510 nM | 101 µg/mL (≈ 200 µM) | 50.7 µg/mL (≈ 100 µM) | 1 ×10⁻⁶ cm/s | 3.98 ×10⁻⁶ cm/s | only very low affinity | – | – | NCCCC[C@@H](CC(N)=O)NC(=O)[C@@H](Cc1c[nH]c2ccccc12)NC(=O)C[C@@H](N)Cc1ccccc1 [Compound 59, (S)-β^3-HPhe-(R)-Trp-(S)-β^3-HLys-NH2] |
| – | – | – | – | 1 ×10⁻⁶ cm/s | medium to good | – | 16 nM | 121 µg/mL (≈ 200 µM) | 121 µg/mL (≈ 200 µM) | 6.31 ×10⁻⁶ cm/s | 1.58 ×10⁻⁶ cm/s | – | 3.1 | – | CCCCNC(=O)C[C@H](CCCCN)NC(=O)[C@@H](Cc1c[nH]c2ccccc12)NC(=O)C[C@H](Cc1ccccc1)NC(C)=O [Compound 52, Ace-(S)-β^3-HPhe-(R)-Trp-(S)-β^3-HLys-butyl-amide] |
| – | 0.0309 g 1-1 | – | – | 25.1 ×10⁻⁶ cm/s | medium to good | – | 10 nM | 124 µg/mL (≈ 200 µM) | – | 6.31 ×10⁻⁶ cm/s | – | – | 3.3 | – | CCCCCNC(=O)C[C@H](CCCCN)NC(=O)[C@@H](Cc1c[nH]c2ccccc12)NC(=O)C[C@H](Cc1ccccc1)NC(C)=O [Compound 44] |
| 0.1041 g 1-1 | 0.1041 g 1-1 | 1.5 | – | 6.31 ×10⁻⁶ cm/s | – | – | – | – | – | 5.01 ×10⁻⁶ cm/s | 7.94 ×10⁻⁶ cm/s | – | – | – | CN(C(=O)C[C@@H](N)Cc1ccccc1)[C@H](Cc1c[nH]c2ccccc12)C(=O)N[C@@H](CCCCN)CC(N)=O [Compound 72, (S)-β^3-HPhe-(R)—N-Me-Trp-(S)-β^3-HLys-NH2] |
| 0.1294 g 1-1 | 0.1294 g 1-1 | 2.8 | – | – | highest solubility values | – | – | – | – | – | – | – | – | 3.7 | CCCCCN(C)C(=O)C[C@H](CCCCN)NC(=O)[C@@H](Cc1c[nH]c2ccccc12)NC(=O)C[C@H](Cc1ccccc1)NC(=O)CC [Compound 49, Propionyl-(S)-β^3-HPhe-(R)-Trp-(S)-β^3-HLys-methyl-pentyl-amide] |
| – | – | – | – | – | – | – | 166 nM | 14.4 µg/mL (≈ 20.1 µM) | 14.4 µg/mL (≈ 20.1 µM) | 0.1 ×10⁻⁶ cm/s | – | – | 2.3 | – | CCN(CC)C(=O)C[C@@H](NC(=O)C[C@H](CCCCN)NC(=O)[C@@H](Cc1c[nH]c2ccccc12)NC(=O)C[C@H](Cc1ccccc1)NC(C)=O)C(C)C [Compound 22, Ac—(S)-β^3-HPhe-(R)-Trp-(S)-β^3-HLys-(R)-β^3-Leu-diethyl-amide] |
| – | – | 3.1 | – | 2 ×10⁻⁶ cm/s | highest solubility values | – | – | – | – | – | 6.31 ×10⁻⁶ cm/s | – | – | – | CCCCCN(C)C(=O)C[C@H](CCCCN)NC(=O)[C@@H](Cc1c[nH]c2ccccc12)N(C)C(=O)C[C@H](Cc1ccccc1)NC(=O)CC [Compound 64] |

| SMILES | HT-Solubility pH 1.0 [1] | HT-Solubility pH 6.8 [1] | logP [2] | logP [3, 5] | Papp [4, 6] | water solubility (in words) [1] | selectivity amongst other hsst receptors (factor) (human SRIF receptors; hsst4 versus other hsst receptors) | Kd (hsst4 receptor) | solubility [1, 7] | solubility [1, 8] | Papp [4, 9] | Papp [4, 10] | affinity to the receptors of the SRIF family (in words) (human SRIF receptors) | logP [3, 11] | HT LogP ohw ([3]; octanol/water) |
| --- | --- | --- | --- | --- | --- | --- | --- | --- | --- | --- | --- | --- | --- | --- | --- |
| CCCCCN(C)C(=O)C[C@H](CCCCN)NC(=O)[C@@H](Cc1c[nH]c2ccccc12)N(Cc1ccccc1)C(=O)C[C@H](Cc1ccccc1)NC(=O)CC [Compound 67] | – | – | – | 4.4 | – | does not allow for good water solubilities | 100 | – | – | – | – | – | – | – | – |
| CCCCCN(C)C(=O)C[C@H](CCCCN)NC(=O)[C@@H](Cc1c[nH]c2ccccc12)N(Cc1ccccc1)C(=O)C[C@H](Cc1ccccc1)NC(=O)CC [Compound 66, Propionyl-(S)-β^3-HPhe-(R)—N-Benzyl-Trp-(S)-β^3-HLys-methyl-pentyl-amide] | – | – | – | – | 3.98 ×10⁻⁶ cm/s | does not allow for good water solubilities | – | 14 nM | 147 µg/mL (≈ 200 µM) | 14.7 µg/mL (≈ 19.9 µM) | – | 7.94 ×10⁻⁶ cm/s | – | 5.5 | – |
